Experimental data taken from patent US5763460A, “N-(piperidinyl-1-alkyl)-substituted cyclohexane carboxylic acid amides as 5-htia receptor antagonists” (John Wyeth & Brother Limited, priority 1993, dated 1998).

What was measured:
5-HT1A receptor [1] = biological target: T1, 5-HT1A receptor (Rattus norvegicus, UniProt P19327); experiment: 5-HT1A receptor binding activity in rat hippocampal membrane homogenate; settings: method of Alexander and Wood
T1 construct: rat hippocampal membrane homogenate; from tissue; host or cells: rat hippocampal membrane homogenate
T1 sequence (P19327 1-422): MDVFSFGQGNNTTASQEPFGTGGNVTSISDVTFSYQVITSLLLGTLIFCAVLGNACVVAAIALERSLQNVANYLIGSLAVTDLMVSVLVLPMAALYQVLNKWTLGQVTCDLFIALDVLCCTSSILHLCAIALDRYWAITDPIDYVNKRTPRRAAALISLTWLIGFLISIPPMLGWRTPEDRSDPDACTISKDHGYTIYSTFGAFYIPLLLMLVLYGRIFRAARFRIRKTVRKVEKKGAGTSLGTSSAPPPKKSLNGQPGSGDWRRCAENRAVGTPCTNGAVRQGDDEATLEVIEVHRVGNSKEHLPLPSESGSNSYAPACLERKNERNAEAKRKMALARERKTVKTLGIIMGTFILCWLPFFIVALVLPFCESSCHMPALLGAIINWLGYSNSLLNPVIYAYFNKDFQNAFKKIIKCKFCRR
Method: The compounds of the invention are tested for 5-HT1A receptor binding activity in rat hippocampal membrane homogenate by the method of B. S. Alexander and M. D. Wood, J Pharm Pharmacol. 1988, 40, 888-891.

α1 site = experiment: affinity for the α1 site; format: binding; settings: procedure of A. L. Marrow et al
5-HT1A receptor [2] = biological target: T2, 5-HT1A receptor (Cavia porcellus, UniProt A0A286Y074); experiment: 5-HT1A receptor antagonism: antagonism of 5-carboxamidotryptamine in the guinea-pig ileum in vitro
T2 construct: guinea-pig ileum in vitro; from tissue; host or cells: guinea-pig ileum
T2 sequence (A0A286Y074 1-421): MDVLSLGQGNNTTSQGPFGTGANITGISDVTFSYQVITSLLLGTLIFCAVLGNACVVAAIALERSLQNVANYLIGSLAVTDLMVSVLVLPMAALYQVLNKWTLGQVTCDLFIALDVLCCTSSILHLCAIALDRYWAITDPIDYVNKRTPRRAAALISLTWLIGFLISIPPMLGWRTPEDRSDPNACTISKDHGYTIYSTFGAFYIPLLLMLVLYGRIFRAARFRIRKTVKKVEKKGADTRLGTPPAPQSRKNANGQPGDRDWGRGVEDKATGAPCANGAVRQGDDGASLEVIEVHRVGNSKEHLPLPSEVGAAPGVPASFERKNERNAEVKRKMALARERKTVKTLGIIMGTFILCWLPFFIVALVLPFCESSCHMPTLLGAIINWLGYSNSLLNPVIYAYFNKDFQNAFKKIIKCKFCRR
Method: The compounds are tested for 5-HT1A receptor antagonism activity in a test involving the antagonism of 5-carboxamidotryptamine in the guinea-pig ileum in vitro (based upon the procedure of Fozard et al, Br J Pharmac, 1985, 86, 601 P).

With `COc1ccccc1C1CCN([C@H](C)CN(C(=O)C2CCCCC2)c2ccccn2)CC1` [Example 1, (R)-N-(2-(1-(4-(2-Methoxyphenyl)piperidinyl))propyl)-N-(2-pyridyl)cyclohexanecarboxamide] the IC50 (5-HT1A receptor [1]) was 3.5 nM, the IC50 (α1 site) was 858 nM and the pA2 (5-HT1A receptor [2]) was 7.9.
